Test results as given in patent publication US9668993B2, “Non-steroidal anti-inflammatory drug dosing regimen” (Johnson & Johnson Consumer Inc., priority 2003, dated 2017).

System: moderate to severe post-operative dental pain
Assay: PK/PD dental pain study, pain relief scores and pain intensity differences over 12 hours
Format: in vivo, human
Settings: for pain relief during the first four hours: compared with the other treatments
Experimental: A double-blind, randomized, parallel, placebo-controlled, single center, PK/PD dental pain study was conducted over a 12 hour observation period to evaluate the pharmacokinetic, pharmacodynamic, efficacy and safety profiles of certain ibuprofen dosing regimens. Specifically, a single dose of 600 mg ibuprofen extended release caplets was compared with equivalent total doses of ibuprofen immediate release 200 mg caplets administered in three different dosing regimens as well as placebo in the treatment of moderate to severe post-operative dental pain.
The ibuprofen was administered as ibuprofen extended release 600 mg caplets or one or more ibuprofen immediate release 200 mg caplets.
The patients evaluated in this study consisted of male or non-pregnant and non-lactating female out-patient volunteers, 16 years of age or older, complaining of moderate to severe pain following the surgical extraction of three or four third molars with at least one partial or complete bony impacted third mandibular molar. The term impacted included: partial bony impaction, bony impaction, or complicated bony impaction. A total of 210 patients were entered into the study. 208 patients were eligible for the efficacy analyses.
All patients who met the entrance criteria were enrolled in one of two study sub-groups. One sub-group of patients had both pharmacokinetic and pharmacodynamic evaluation (PK group). The other sub-group of patients had only the analgesic efficacy evaluations (non-PK group). A separate randomization schedule was used for each of the two sub-groups. Patients from both subgroups were assigned at random to one of the five following treatments:
Patients' assessments of pain intensity and pain relief as well as blood samples for plasma ibuprofen analysis were obtained at the study site at hours 0, 0.25, 0.5, 1, 1.5, 2, 2.5, 3, 4, 4.5, 5, 6, 7, 8, 8.5, 9, 10, 11 and 12. A stopwatch technique was used to measure the onset of meaningful pain relief.

CC(C)Cc1ccc(C(C)C(=O)O)cc1 (centres unmarked) [ibuprofen, 2-(4-isobutylphenyl)-propionic acid]
pain relief during the first four hours (400/200/0 regimen: immediate release 400 mg at 0 hour, 200 mg at 4 hours): superior pain relief over the other treatments
pain relief over the entire 12 hour study period (400/200/0 regimen: immediate release 400 mg at 0 hour, 200 mg at 4 hours, patients after third molar extraction): excellent pain relief
pain relief scores during the 4 to 12 hour interval (400/200/0 regimen, no further ibuprofen after the first four hours): highest pain relief scores
pain intensity differences (PID) over the 12 hour study period (400/200/0 regimen, particularly after the four hour mark): best PID
pain relief during the first four hours (600/0/0 immediate release regimen: 600 mg single dose at 0 hour): superior pain relief over the other treatments
